Source: patent US5840690A, “Regulation of cell proliferation and differentation using peptides” (priority 1995, dated 1998)
Non-standard residues stand in square brackets, D forms with d. Residues, ends and D or L forms follow the SMILES beside them. Nle = CCCC[C@H](N)C(=O)O

Key:
psoriasis = details: provided either orally or topically; cited from earlier work
[1] = test system: wounds made through the skin with a 6 mm dermal biopsy punch; experiment: In vivo skin punch assay; set-up: species or system Sprague-Dawley rats; details: rats, 2.0 μg topically in normal saline, immediately after biopsy and each day for 3 days, FIG. 8
Method: Male Sprague-Dawley rats were anesthetized by intraperitoneal injection of sodium pentobarbital, their dorsal skin shaved, and wounds made through the skin with a 6 mm dermal biopsy punch. Immediately after the biopsy, and each subsequent day for 3 days, groups of rats received topically 2.0 μg of human PTH (1-34) in normal saline or human PTH (7-34) in normal saline; a control group received normal saline without peptide. Four rats from each group were killed by asphyxiation in a chamber of carbon dioxide, and the extent of wound healing was evaluated as follows. Wounds were photographed with the wound surface perpendicular to the axis of the lens. After development of the film, wound images were projected on to paper at a fixed distance, traced with a pencil, and cut out with sharp scissors. The relative sizes of the wounds were assessed by weighing the cut-out paper tracings. Percent healing was calculated from the average decrease in wound area for each group.

[2] = test system: cultured human keratinocytes; experiment: Keratinocyte culture: counts of total cells, basal cells and cornified envelopes; assay type: cell-based; details: for total number of basal cells: one week of dosing; for proliferation and terminal differentiation of cultured human keratinocytes (conclusion from the results): peptide by itself
Method: Keratinocytes were grown in culture as follows. NIH 3T3 cells were plated at 0.5×10^5 cells per 35-mm tissue-culture dish, and two days later were lethally irradiated with a cobalt-60 source (5000 rads). Keratinocytes were obtained from neonatal foreskin after overnight trypsinization at 4° C. and treatment with 0.02% EDTA. Keratinocytes were plated in 2 ml of serum-free medium per dish on the lethally irradiated 3T3 cells. Each experiment was performed on primary or secondary keratinocyte cultures obtained from different skin samples.
In addition, 1,25-(OH)2 D3 was tested, alone and in combination with PTH (7-34), and PTH (1-34) and PTH (7-34) were tested together.
Beginning at one week in culture, groups of triplicate plates of keratinocytes were incubated with the aforementioned compounds or vehicle alone. After one week of dosing, the medium was removed from each culture and centrifuged, and the pellet was resuspended for the counting of the desquamated floater cells. A hemacytometer was used to count the different cell types under a phase-contrast microscope. The attached cells were then trypsinized for 30-40 min with 0.1 EDTA and 0.1% trypsin and then neutralized with medium. The keratinocytes were pelleted and resuspended in a known volume of medium. Duplicate aliquots were taken for counting the basal (small, rounded) and squamous (larger, irregular-shaped, flattened) cells. The remaining cells were pelleted and treated with 10 mM Tris-HCl (pH 7.4) with 1% beta-mercaptoethanol and 1% sodium dodecyl sulfate (SDS) at room temperature for 10 min. Only cells with cornified envelopes were present after this treatment.
Each culture was thus evaluated for its total cell content, number of basal cells, and cornified envelopes, as described above.

[3] = test system: PTH-stimulated biologic responses; details: cited from earlier work
[4] = test system: PTH-mediated elevation of plasma calcium; details: cited from earlier work
[5] = test system: canine adenylate cyclase system; details: cited from earlier work
[6] = peptide alone at 10^-8 M and 10^-7 M
[7] = PTH (7-34) together with the agonist

Compound: C=C1/C(=C\C=C2/CCC[C@]3(C)[C@@H]([C@H](C)CC[C@@H](O)C(C)C)CC[C@@H]23)C[C@@H](O)C[C@@H]1O [1,24-dihydroxyvitamin D3]
- value in the treatment of psoriasis (psoriasis): of value in the treatment of psoriasis

Compound: CC[C@H](C)[C@H](NC(=O)[C@H](CCC(=O)O)NC(=O)[C@H](CO)NC(=O)[C@@H](NC(=O)[C@@H](N)CO)C(C)C)C(=O)N[C@@H](CCC(N)=O)C(=O)N[C@@H](CC(C)C)C(=O)N[C@@H](CCSC)C(=O)N[C@@H](Cc1c[nH]cn1)C(=O)N[C@@H](CC(N)=O)C(=O)N[C@@H](CC(C)C)C(=O)NCC(=O)N[C@@H](CCCCN)C(=O)N[C@@H](Cc1c[nH]cn1)C(=O)N[C@@H](CC(C)C)C(=O)N[C@@H](CC(N)=O)C(=O)N[C@@H](CO)C(=O)N[C@@H](CCSC)C(=O)N[C@@H](CCC(=O)O)C(=O)N[C@@H](CCCNC(=N)N)C(=O)N[C@H](C(=O)N[C@@H](CCC(=O)O)C(=O)N[C@@H](Cc1c[nH]c2ccccc12)C(=O)N[C@@H](CC(C)C)C(=O)N[C@@H](CCCNC(=N)N)C(=O)N[C@@H](CCCCN)C(=O)N[C@@H](CCCCN)C(=O)N[C@@H](CC(C)C)C(=O)N[C@@H](CCC(N)=O)C(=O)N[C@@H](CC(=O)O)C(=O)N[C@H](C(=O)N[C@@H](Cc1c[nH]cn1)C(=O)N[C@@H](CC(N)=O)C(=O)N[C@@H](Cc1ccccc1)C(=O)O)C(C)C)C(C)C [PTH (1-34), Parathyroid Hormone (1-34), Human]
- wound healing (percent healing from decrease in wound area) [1]: biologically effective in enhancing wound healing
- wound healing (percent healing from decrease in wound area) ([1]; listed as human PTH (1-34)): enhance wound healing
- growth of human cultured keratinocytes ([2]; 10^-7 and 10^-8 M): inhibits growth
- terminal differentiation of human cultured keratinocytes ([2]; 10^-7 and 10^-8 M): induces terminal differentiation
- total number of cornified envelopes, percent of control ([2]; compound alone, FIGS. 6 and 7): increased, in a dose-dependent manner
- total number of basal cells [2, 6]: significantly decreased
- proliferation and terminal differentiation of cultured human keratinocytes (conclusion from the results) [2]: biologically effective in inhibiting the proliferation of cultured human keratinocytes and inducing terminal differentiation

Compound: CCCC[C@H](NC(=O)[C@H](CO)NC(=O)[C@H](CO)NC(=O)[C@H](CC(C)C)NC(=O)[C@H](Cc1c[nH]cn1)NC(=O)[C@H](CCCCN)NC(=O)CNC(=O)[C@H](CC(C)C)NC(=O)[C@H](CC(N)=O)NC(=O)[C@H](Cc1c[nH]cn1)NC(=O)[C@H](CCCC)NC(=O)[C@H](Cc1ccccc1)NC(=O)[C@H](CCC(N)=O)NC(=O)[C@@H](NC(=O)[C@H](CCC(=O)O)NC(=O)[C@@H](N)CO)[C@@H](C)CC)C(=O)N[C@@H](CCC(=O)O)C(=O)N[C@@H](CCCNC(=N)N)C(=O)N[C@H](C(=O)N[C@@H](CCC(=O)O)C(=O)N[C@@H](Cc1c[nH]c2ccccc12)C(=O)N[C@@H](CC(C)C)C(=O)N[C@@H](CCCNC(=N)N)C(=O)N[C@@H](CCCCN)C(=O)N[C@@H](CCCCN)C(=O)N[C@@H](CC(C)C)C(=O)N[C@@H](CCC(N)=O)C(=O)N[C@@H](CC(=O)O)C(=O)N[C@H](C(=O)N[C@@H](Cc1c[nH]cn1)C(=O)N[C@@H](CC(N)=O)C(=O)N[C@@H](Cc1ccc(O)cc1)C(N)=O)C(C)C)C(C)C [PTH (3-34), [Nle^8, Nle^18, Tyr^34] bovine (3-34) PTH amide] (H-SEIQF[Nle]HNLGKHLSS[Nle]ERVEWLRKKLQDVHNY-NH2)
- total number of cornified envelopes, percent of control ([2]; compound alone, FIGS. 6 and 7): increased, in a dose-dependent manner
- proliferation of keratinocytes (agonist) ([2]; concentration not given): inhibits proliferation
- terminal differentiation of keratinocytes (agonist) ([2]; concentration not given): induces terminal differentiation
- total number of basal cells ([2]; peptide alone at 10^-10 and 10^-8 M): significantly decreased
- proliferation and terminal differentiation of cultured human keratinocytes (conclusion from the results) [2]: have the same effect as PTH (1-34)
- PTH-stimulated biologic responses in vitro [3]: can be inhibited

Compound: CSCC[C@H](NC(=O)[C@H](CO)NC(=O)[C@H](CO)NC(=O)[C@H](CC(C)C)NC(=O)[C@H](Cc1c[nH]cn1)NC(=O)[C@H](CCCCN)NC(=O)CNC(=O)[C@H](CC(C)C)NC(=O)[C@H](CC(N)=O)NC(=O)[C@H](Cc1c[nH]cn1)NC(=O)[C@H](CCSC)NC(=O)[C@@H](N)Cc1ccccc1)C(=O)N[C@@H](CCC(=O)O)C(=O)N[C@@H](CCCNC(=N)N)C(=O)N[C@H](C(=O)N[C@@H](CCC(=O)O)C(=O)N[C@@H](Cc1c[nH]c2ccccc12)C(=O)N[C@@H](CC(C)C)C(=O)N[C@@H](CCCNC(=N)N)C(=O)N[C@@H](CCCCN)C(=O)N[C@@H](CCCCN)C(=O)N[C@@H](CC(C)C)C(=O)N[C@@H](CCC(N)=O)C(=O)N[C@@H](CC(=O)O)C(=O)N[C@H](C(=O)N[C@@H](Cc1c[nH]cn1)C(=O)N[C@@H](CC(N)=O)C(=O)N[C@@H](Cc1ccc(O)cc1)C(N)=O)C(C)C)C(C)C [PTH (7-34), [Tyr^34] bovine PTH (7-34) amide]
- wound healing (percent healing from decrease in wound area) [1]: biologically effective in enhancing wound healing
- PTH-like agonist activity ([4]; rat, in vivo): devoid of PTH-like agonist activity
- PTH-mediated elevation of plasma calcium ([4]; thyroparathyroidectomized rats in vivo): can inhibit
- keratinocyte antiproliferative and terminal differentiation-inducing activities of 1,25(OH)2 D3 ([2]; PTH (7-34) against 1,25(OH)2 D3): blocks
- antiproliferative and differentiation-inducing activities of PTH (1-34) and CFF (1-34) (antagonist) ([2]; PTH (7-34) against PTH (1-34) and CFF (1-34)): blocks
- response to 1,25(OH)2 D3 (cell numbers) ([2]; PTH (7-34) at 10^-7 M co-incubated with 1,25(OH)2 D3 at 10^-8 M): significantly decreased the response
- effect of PTH (1-34) and CFF (1-34) on total number of cells and total number of basal cells ([2]; PTH (7-34) co-incubated with hPTH (1-34) or CFF (1-34)): inhibited the effect
- antiproliferative and differentiation-inducing activities of each of 1,25(OH)2 D3, PTH (1-34), and CFF (1-34) (conclusion) [2, 7]: can block
- effect of 1,25(OH)2 D3, PTH (1-34), and CFF (1-34) on cornified envelope development [2, 7]: inhibited the effect
- total number of cornified envelopes, percent of control [2, 6]: no effect
- total number of basal cells [2, 6]: no effect
- proliferation and terminal differentiation of cultured human keratinocytes (conclusion from the results) [2]: substantially no effect

Compound: Parathyroid Hormone (1-34), Rat [Rat PTH (1-34)]
- activity relative to bovine PTH (1-34) [5]: 2-4 fold
- activity relative to human PTH (1-34) [5]: 8-10 fold
